Assay results reported in PubChem BioAssay AID179 (DTP/NCI, 2004).
pEC50, pIC50: −log10 of the molar value. Where “and” joins values, the source holds several entries; their conditions need not be identical. Equal values may be shown once. Calls of active or inactive are those of the source.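 The calls were made as follows: active = compounds giving half or more protection of infected cells from virus-caused growth loss, again on retest; inactive = the rest.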 Where a SMILES comes first, the peptide text is derived from it. [ ]: non-standard residue; d: D form. The star is where a group is joined. ξ: configuration not given here. Bz = O=C(c1ccccc1)*; Bn = c1ccc(C*)cc1; ξC = NC(CS)C(=O)O

System: CEM cells HIV-1 protection, formazan growth assay
Experiment: NCI AIDS Antiviral Assay
Settings: for pIC50: measured here: growth of uninfected CEM cells
Procedure, shortened: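 CEM (human) cells, HIV-1 infected vs uninfected, 5-point dosing, formazan growth read-out. Retest threshold 50% protection.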

SMILES	pEC50	pIC50	outcome
CC(C)(C)C=C=C(C(C)(C)C)P(=O)(O)O	< 3.70	< 3.70	
S=c1[nH]nc2nc(Nc3ccccc3)nc(Nc3ccccc3)n12	< 4.67	< 4.67	
N#C/C(=C\c1ccc(Br)cc1)c1nc(-c2cc3ccccc3oc2=O)cs1	4.08	< 4.00	
Cc1cc(S(=O)(=O)Nc2nnc3c(C(F)(F)F)cc(Cl)cn23)c(S)cc1Cl	3.78	3.77	
CCOC(=O)c1cc2c(nc1NCc1ccc(OC)c(OC)c1)/C(=C/c1ccccc1)CCCC2	< 3.70	4.99	
CC1(C)COC2(C)ON12 (stereo unspecified)	< 3.70	< 3.70	
NC1=NS(=O)(=O)Nc2nc(-c3cccs3)[nH]c21	< 3.70	< 3.70	
CC(C)=CCOc1cc(NC(=S)c2ccoc2C)ccc1Cl	7.12	4.52	
COc1ccc(C2C3=CONC3CC3CCCCC32)cc1 (stereo unspecified)	< 3.70	4.11	
COC12c3ccccc3-c3ccccc3C1[C@H]1C(=O)OC(=O)[C@H]12 (stereo partly specified)	< 3.79	< 3.79	
O=C(O)CCCCCCCCCCCBr	4.43	3.79	
O=C1CC(c2ccccc2)n2cccc21 (stereo unspecified)			inactive
NC(=O)NNc1nc2ccccc2c(=O)n1NC(=O)C(=O)Nc1ccc(Cl)cc1Cl	< 4.10	< 4.10	
CC1=C/N\C(C#N)=C(C#N)/N=C/C(C)=C\N\C(C#N)=C(C#N)/N=C\1	< 3.70	< 3.70	
CCOc1ccc(N=c2ssc(SC)c2-c2ccccc2)cc1	< 3.70	4.21	
C=C1C(=O)OC2CC1(C)OCC2[C@H]1CCC2C3CC=C4CC=CC(=O)[C@]4(C)C3CC[C@@]21C (stereo partly specified)	< 3.81	5.48	
Nc1c(SSc2ccc3ccccc3c2N)ccc2ccccc12	< 4.30	4.83	
CS(=O)(=O)OCCCNCCCOS(C)(=O)=O	< 3.12	3.25	
S=C1NC2(CCCCC2)C2=C(CCCC2)S1	< 3.85	4.92	
O=C1C(=c2ccc(=C3C(=O)c4ccc([N+](=O)[O-])cc4[N+]3=O)cc2)N([O-])c2cc([N+](=O)[O-])ccc21	< 4.94	< 4.94	
CCOC(=O)/C(F)=C/c1ccc(C#N)cc1	< 4.48	< 4.48	
O=C(CNC(=O)c1ccccc1)NC(CSCc1ccccc1)C(=O)O (stereo unspecified) (Bz-Gly-[ξC](Bn)-OH)	< 3.17	3.26	

SMILES	pEC50	pIC50	outcome
CC(C)CNC1=NCC(C)S1 (stereo unspecified)	< 3.70	< 3.70	
COC(=O)CC(C(C(=O)OCc1ccccc1)C(C)O)N1C(=O)OCC1c1ccccc1 (stereo unspecified)	< 3.70	3.91	
CC(=Nc1ccc(N(C)C)cc1)c1ccccc1	< 3.70	4.54	
COC(=O)[C@@H]1C[C@H]2[C@H](c3ccccc3Br)[C@@H](OC(C)=O)[C@@H](OCc3ccccc3)ON2O1	< 3.70	< 3.70	
CC1=C(C#N)C(=O)N(/N=C/c2ccc(Cl)cc2)C(=O)/C1=c1\o/c(=C2/C(=O)N(/N=C/c3ccc(Cl)cc3)C(=O)C(C#N)=C2C)c2nccnc12	< 3.70	3.96	
Cc1nc(SCC(N)=O)c2sc(=S)n(-c3ccccc3)c2n1	< 3.70	< 3.70	
CCCCN(CCCC)C(=O)/C(CC(=O)c1cccc2ccccc12)=N\NC(=O)c1cc2ccccc2cc1O	< 4.46	4.79	
CC1C(=O)CCC1C(Sc1ccccc1)(Sc1ccccc1)Sc1ccccc1 (stereo unspecified)			inactive
C(=C1\CCC/C(=C/c2ccccc2)C1=NNc1ccccc1)/c1ccccc1	< 4.84	< 4.84	
Cc1cn([C@@H]2C[C@H](CO)[C@@H]2O)c(=O)[nH]c1=O	< 3.70	< 3.70	
Cc1cn(C2C=CC(COP(=O)(OCC(=O)c3ccccc3)OCC(=O)c3ccccc3)O2)c(=O)[nH]c1=O (stereo unspecified)	6.07	3.96	
CCC1CCc2c(c(=O)oc3c2cc(OC)c2cccc(OC)c23)C1 (stereo unspecified)	< 3.96	4.06	
COc1cc(-c2coc3cc(O)ccc3c2=O)c(O)c(OC)c1OC	< 3.70	4.14	
O=C(O)c1ccc2c(c1C(=O)O)C(=O)c1ccccc1C2=O	< 3.70	< 3.70	
CCC(=O)OC1CCn2c1nc1c2C(=O)C(C)=C(NC(C)=O)C1=N (stereo unspecified)	< 3.70	5.45	
NC(=O)NCCC[C@H](NC(=O)[C@H](CS)NC(=O)[C@@H](N)Cc1cnc[nH]1)C(=O)N[C@H](Cc1ccccc1)C(=O)N[C@@H](Cc1c[nH]c2ccccc12)C(=O)N[C@@H](Cc1c[nH]c2ccccc12)C(N)=O	< 3.70	< 3.70	
Cc1n[nH]c(=O)n1-n1cccc1	< 3.70	< 3.70	
Cc1ccc(SC2CC3CC2C2COCC32)cc1 (stereo unspecified)	< 4.07	4.32	
CC1(C)OC2OC3C(I)CN(C(=O)OCc4ccccc4)C3C2O1 (stereo unspecified)	< 3.70	3.96	
Cc1nc(C(=O)O)c(C(=O)O)[nH]1	< 3.70	< 3.70	
C=C(CCCC(C)OC(C)OCC)[Si](C)(C)C (stereo unspecified)	< 4.41	< 4.41	
N#CC=Cc1ccc([N+](=O)[O-])s1 (mixture of isomers)	< 5.70	6.78	

SMILES	pEC50	pIC50	outcome
CNC(=O)OCCOC(=O)c1ccc(OC(=O)NC)cc1	< 3.70	4.15	
Cc1cccc2c1CC1(Cc3ccccc3C1=O)C2=O (stereo unspecified)	< 3.70	< 3.70	
O=C1CCC2(CC1)SCCCS2	< 3.47	< 3.47	
O=C1NC(=O)[C@@H](OCC2CCCCC2)[C@@H]2OCC3OC(C(O)C3O)C12 (stereo partly specified)	< 3.70	< 3.70	
CCC1(O)C(=O)OCc2c1cc1n(c2=O)Cc2cc3cc(OC)c(OC)cc3nc2-1 (stereo unspecified)	< 5.00	5.89	
COc1nc(NC2OC(COC(C)=O)C(OC(C)=O)C(OC(C)=O)C2OC(C)=O)c(-c2csc(N)n2)c(=O)n1C (stereo unspecified)	< 5.21	< 5.21	
COc1ccc(NC(=O)/C(=C/c2ccc(N(CCC#N)CCC#N)cc2)NC(=O)c2cc([N+](=O)[O-])ccc2Cl)cc1	< 4.63	< 4.63	
N#CC1=C(C#N)/C(=C(\C#N)C(C#N)C#N)N=C1N	< 4.00	4.43	
Cc1cn(CC2OCC(CO)O2)c(=O)[nH]c1=O (stereo unspecified)	< 2.89	2.96	
CSc1ccc(NC(=O)Nc2cc(C)cc(C)n2)cc1	< 3.70	< 3.70	
O=C(CCN1CCN(CCC(=O)c2ccccc2)CC1)c1ccccc1	< 3.70	5.04	
C=C(C)[C@@H]1CC[C@]2(CO)CC[C@]3(C)[C@H](CC[C@@H]4[C@@]5(C)CC[C@H](O)C(C)(C)[C@@H]5CC[C@]43C)[C@@H]12	4.38	4.16	
N#CC(=N)c1ncn(-c2ccccc2N)c1N	< 3.70	< 3.70	
NNC(=O)CC(=O)Nc1ccccc1F	< 2.93	3.06	
c1cc[c]([Sn]([S]c2cccc3cccnc23)([S]c2cccc3cccnc23)[c]2ccccc2)cc1			inactive
CN=C(NNc1ccc([N+](=O)[O-])cc1)P(=O)(OC(C)C)OC(C)C	< 5.14	< 5.14	
O=C1C2=C(c3ccccc31)C(c1ccccc1Cl)N1C(=O)CSC1=N2 (stereo unspecified)	< 4.43	< 4.43	
C/C(=C(/C)c1cc[n+](C)cc1)c1cc[n+](C)cc1	< 4.95	< 4.95	
CC(=O)OC1COC(n2c(N)c(C#N)c(-c3ccccc3)c(C#N)c2=S)C(OC(C)=O)C1OC(C)=O (stereo unspecified)	< 3.70	4.47 and 4.44	
CC(C)(C)OC(=O)NC(Cc1ccc(O)cc1)/C(O)=C(\C#N)c1c(F)c(F)c(F)c(F)c1F (stereo unspecified)	< 3.70	3.91	
[C-]#[O+].[C-]#[O+].[C-]#[O+].[Cr].c1ccc(P(CC[PH+](CC[PH+](CC[PH+](c2ccccc2)c2ccccc2)c2ccccc2)c2ccccc2)c2ccccc2)cc1 (stereo unspecified)	< 5.33	< 5.33	
COc1cc(O)c2c(c1)C(=O)C1=C(C2=O)C(O)C[C@@](C)(O)C1 (stereo partly specified)			inactive

SMILES	pEC50	pIC50	outcome
CN1CCCOC(c2ccc([N+](=O)[O-])cc2)O1 (stereo unspecified)	< 3.70	< 3.70	
O=C(O)Cn1c[n+](NC(=O)Cc2ccccc2)cn1	< 3.70	< 3.70	
COc1ccc(C2SC(N)=Nc3c2c(C)nn3C(=O)c2ccc(Cl)cc2)cc1 (stereo unspecified)	< 3.70	3.82	
CN1CCN(/C(N)=C(\C#N)C(=O)Nc2ccc(Cl)cc2)CC1	< 3.70	< 4.00	
COC(=O)/C(C#N)=C1\N=NNN1CCCc1ccccc1			inactive
COC(OC)C(O)C1OC=CC1n1cnc2c(N)ncnc21 (stereo unspecified)	< 3.70	< 3.70	
COc1ccc(C[C@H](N)C(=O)N2C[C@H](CO)C[C@H](n3cnc4c(N(C)C)ncnc43)C2)cc1	< 3.86	4.09	
N#Cc1c(N)nc(N)nc1Nc1ccc(I)cc1	< 3.70	4.63	
Cc1nc2cc(Nc3ccccc3C(=O)O)ccc2s1	< 3.20	3.80	
N.N.N.N.N.O=C([O-])C(=O)[O-].[Co+3].[O-][Cl+3]([O-])([O-])O.[O-][Cl+3]([O-])([O-])[O-]			inactive
O=CCOCc1cc2c(cc1Br)OCO2	< 3.70	5.28	
NC(N)=NS(=O)(=O)c1ccc(NCc2cccc3c(=O)c4ccc(Cl)cc4oc23)cc1	< 4.60	5.66	
CCOP(=O)(OCC)/C(C#N)=C/c1nccn1C			inactive
CCOc1cc(/C=C/c2c(C#N)c(=O)oc3ccc(C)cc23)ccc1O	< 4.60	5.35	
Nc1cnn(C2OC(CO)C(F)C2F)c(=O)n1 (stereo unspecified)	< 3.44	< 3.44	
O=C(/C=C/c1cccs1)c1ccc(C(=O)/C=C/c2cccs2)cc1	< 3.70	4.34	
CCCN(CCC)C(=S)N/N=C(/C)c1ccccc1O	< 3.70	4.80	
O=c1[nH]nnc2cc(Cl)ccc12	< 3.70	< 3.70	
CCSC(CCCC1OCC2OC(n3cc(C)c(=O)[nH]c3=O)CC2N1O)SCC (stereo unspecified)	< 3.70	3.87	
Oc1ccc(O)c(-n2cccn2)c1-n1cccn1	< 3.96	4.37	
COC1=C(C)C(=O)C(=O)c2ccc(C)nc21			inactive
